Test system: fungi spores
Test: inhibitory effect on the growth of fungi spores
Assay type: cell-based

Q: How did the “inhibitory effect on the growth of fungi spores” value (“inhibitory effect on the growth” below) turn out when `COC1=CC(=O)O[C@@H](CCc2ccc3c(c2)OCO3)C1` [dihydromethysticin] was run?
A: exhibit inhibitory effect

Q: For `COC1=CC(=O)O[C@@H](CCc2ccccc2)C1` [diydrokawain], which “inhibitory effect on the growth” value is on record?
A: exhibit inhibitory effect

Q: Which “inhibitory effect on the growth” value does the source give for `COC1=CC(=O)O[C@@H](/C=C/c2ccccc2)C1` [kawain] here?
A: exhibit inhibitory effect
